Assay results from patent US20040171073A1, “Compounds for modulation of cholesterol transport” (Massachusetts Institute of Technology, priority 2002, published 2004).

Target: T1, murine SR-BI (Mus musculus, UniProt Q61009)
T1 construct: expressed in transfected cells; host or cells: ldlA-7 (LDL receptor deficient Chinese hamster ovary cells)
T1 sequence (Q61009 1-509): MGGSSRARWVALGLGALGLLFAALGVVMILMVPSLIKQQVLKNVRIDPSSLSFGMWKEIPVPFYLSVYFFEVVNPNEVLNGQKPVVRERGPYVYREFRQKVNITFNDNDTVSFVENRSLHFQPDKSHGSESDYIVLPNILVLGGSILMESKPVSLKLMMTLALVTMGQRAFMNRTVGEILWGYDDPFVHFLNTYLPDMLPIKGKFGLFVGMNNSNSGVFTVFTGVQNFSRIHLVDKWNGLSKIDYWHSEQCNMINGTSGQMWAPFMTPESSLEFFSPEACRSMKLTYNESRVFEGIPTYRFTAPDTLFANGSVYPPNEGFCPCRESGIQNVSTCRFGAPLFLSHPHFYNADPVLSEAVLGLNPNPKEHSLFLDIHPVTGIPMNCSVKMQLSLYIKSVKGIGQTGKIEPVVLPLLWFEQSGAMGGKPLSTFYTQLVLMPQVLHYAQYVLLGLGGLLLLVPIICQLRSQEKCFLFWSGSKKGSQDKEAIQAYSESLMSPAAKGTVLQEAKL
Test: Uptake of DiI from DiI-HDL by ldlA[mSR-BI] cells (high throughput screen and concentration dependence)
Assay type: cell-based

[1] = DiI uptake from DiI-HDL, compounds at nominal 10 micromolar, ldlA[mSR-BI] cells

ENDOHDL Test 1 [1]	ENDOHDL Test 2 [1]	ENDOHDL Test 1	ENDOHDL Test 2	SMILES
0.35	0.44	–	–	[O-][n+]1onc2c3cc(-c4ccccc4)[nH]c3ccc21 [MIT 9952-304]
–	–	1.21	1.22	O=C(Cl)CCNC(=O)c1ccccc1 [MIT 9952-18]
–	–	0.54	0.58	O=C(NC(NC(=S)Nc1ccc2ccccc2c1)C(Cl)(Cl)Cl)c1cccc([N+](=O)[O-])c1 (stereo not shown) [MIT 9952-216]
–	–	0.5	0.51	O=C(/C=C/c1ccccc1)NC(NC(=S)Nc1cccc([N+](=O)[O-])c1)C(Cl)(Cl)Cl (stereo not shown) [MIT 9952-100]
–	–	1.33	1.17	O=C(COc1ccc(Cl)cc1)N/N=C/c1ccc(Cl)cc1 [MIT 9952-31]
–	–	1.26	1.21	CC1(C)CC(=O)C(=Cc2c(Cl)ccc3ccccc23)C(=O)C1 [MIT 9952-157]
–	–	1.13	1.17	O=C(O)c1cc(C(=O)O)nc(C(=O)O)c1 [MIT 9952-60]
–	–	0.66	0.57	O=C(Nc1cccc(NC(=O)c2ccccc2Cl)c1)c1cccc([N+](=O)[O-])c1 [MIT 9952-213]
–	–	1.28	1.19	Cc1ccc(N2SC(NS(=O)(=O)c3ccc(C)cc3)N=C2c2ccccc2)cc1 (stereo not shown) [MIT 9952-207]
–	–	0.66	0.65	O=C(/C=C/c1ccccc1)Nc1cccc(Cl)c1Cl [MIT 9952-263]
–	–	0.59	0.65	COc1ccc(C(=O)Nc2ccc(I)cc2)cc1OC [MIT 9952-253]
–	–	0.56	0.56	Nc1ccc(C(=O)Nc2ccc(C3Nc4ccc(SC(=O)c5ccc(N)cc5)c(Cl)c4S3)cc2)cc1 (stereo not shown) [MIT 9952-144]
–	–	0.62	0.6	O=C(COc1ccc(Cl)cc1Cl)Nc1cccc(C(=O)O)c1 [MIT 9952-127]
–	–	1.27	1.98	C#CCOC(=O)CCCC(=O)Nc1ccccc1[N+](=O)[O-] [MIT 9952-191]
–	–	0.59	0.64	O=C(Cc1ccccc1)N/N=C/c1cccn1-c1ccc([N+](=O)[O-])cc1 [MIT 9952-123]
0.54	0.58	–	–	O=C(NC(NC(=S)Nc1ccc2ccccc2c1)C(Cl)(Cl)Cl)c1cccc([N+](=O)[O-])c1 (stereo not shown) [MIT 9952-336]
–	–	0.57	0.6	CCOC(=O)c1sc(-c2ccccc2)nc1-c1ccc([N+](=O)[O-])cc1 [MIT 9952-165]
–	–	0.64	0.57	CCOC(=O)c1c(NC(=O)c2ccccc2C)sc2c1CCCC2 [MIT 9952-223]
–	–	0.74	0.66	COc1ccccc1NC(=O)c1ccc(OC)c(OC)c1 [MIT 9952-269]
1.18	1.32	–	–	Cc1cc(C)c(/C=N/N=C/c2c(C)cc(C)cc2C)c(C)c1 [MIT 9952-287]
–	–	0.59	0.54	C/C(CS(=O)(=O)c1ccccc1)=N/NC(N)=S [MIT 9952-271]
–	–	0.44	0.46	O=C(Nc1ccc(Cl)cc1C(=O)c1ccc(Cl)cc1)c1cc(Cl)ccc1NS(=O)(=O)c1ccc(Cl)cc1 [MIT 9952-45]
0.56	0.49	–	–	O=C(NC(NC(=S)Nc1cccc2ccccc12)C(Cl)(Cl)Cl)c1cccc([N+](=O)[O-])c1 (stereo not shown) [MIT 9952-325]
–	–	1.32	1.17	O=C1CC(N2CCOCC2)C(=O)N1c1ccc(Br)cc1 (stereo not shown) [MIT 9952-81]
–	–	0.51	0.48	CC(=O)OCc1c(C)cc(C)c(/C=N/Nc2ccc([N+](=O)[O-])cc2)c1C [MIT 9952-273]
0.67	0.6	–	–	Clc1ccc(N2CCC/C2=N\c2c3c(nc4ccccc24)N(c2ccccc2)CC3)cc1Cl [MIT 9952-305]

ENDOHDL Test 1 [1]	ENDOHDL Test 2 [1]	ENDOHDL Test 1	ENDOHDL Test 2	SMILES
–	–	0.6	0.58	O=C1Nc2ccc([N+](=O)[O-])cc2/C1=N/NC(=O)C1C2CCCCC21 (stereo not shown) [MIT 9952-184]
–	–	0.58	0.54	O=C1CC(S/C(=N\c2ccccc2)Nc2ccccc2)C(=O)N1c1cccc2ccccc12 (stereo not shown) [MIT 9952-171]
–	–	0.63	0.35	CC(C)(C)c1ccc(C(=O)Nc2cccc(NC(=O)c3cccc([N+](=O)[O-])c3)c2)cc1 [MIT 9952-214]
–	–	1.32	1.17	O=C1CC(N2CCOCC2)C(=O)N1c1ccc(Br)cc1 (stereo not shown) [MIT 9952-17]
–	–	0.35	0.44	[O-][n+]1onc2c3cc(-c4ccccc4)[nH]c3ccc21 [MIT 9952-59]
–	–	0.54	0.63	Cc1nn(-c2ccccc2)c(Cl)c1/N=N/c1ccccc1 [MIT 9952-138]
–	–	0.58	0.58	O=C(Nc1ccc2c(c1)S(=O)(=O)c1cc(NC(=O)c3cccc4ccccc34)ccc1-2)c1cccc2ccccc12 [MIT 9952-229]
–	–	0.5	0.5	O=C(CNS(=O)(=O)c1ccc([N+](=O)[O-])cc1)N/N=C/c1ccccc1 [MIT 9952-186]
–	–	0.64	0.71	O=C(C[n+]1ccc(CCSC2Cc3cccc4cccc2c34)cc1)c1ccc([N+](=O)[O-])cc1 (stereo not shown) [MIT 9952-75]
–	–	0.63	0.64	CCCCCOc1ccc(-c2ccc(C(=O)NC(NCc3ccccc3)C(Cl)(Cl)Cl)cc2)cc1 (stereo not shown) [MIT 9952-247]
–	–	0.61	0.6	CCOc1ccc(NC(=O)/C=C/c2cccc([N+](=O)[O-])c2)cc1 [MIT 9952-255]
–	–	0.66	0.65	COc1ccc(C(=O)Nc2ccc(C(C)C)cc2)cc1OC [MIT 9952-277]
–	–	0.61	0.51	Nc1cc2cccnc2c2ncccc12 [MIT 9952-230]
–	–	0.26	0.89	Cc1ccc2[nH]c3c(c2c1)CCCC3NCC12CC3CC(CC(C3)C1)C2 (stereo not shown) [MIT 9952-265]
0.57	0.49	–	–	COc1ccc2c(c1)c(C(C)=O)c(C)n2-c1ccccc1 [MIT 9952-335]
–	–	0.46	0.59	O=[N+]([O-])c1cccc(/C=N\Nc2nc(Nc3ccc(Cl)cc3)nc(N3CCOCC3)n2)c1 [MIT 9952-209]
–	–	0.58	0.53	C=CCc1c(C)nc(-c2ccccc2)nc1Nc1ccc([N+](=O)[O-])cc1 [MIT 9952-227]
–	–	0.34	0.52	Cc1cc(C(=O)N/N=C\c2c(O)ccc3ccccc23)[nH]n1 [MIT 9952-150]
–	–	0.57	0.55	Nc1ccc(C(=O)Nc2ccc(-c3nc4ccc(NC(=O)c5ccc(N)cc5)c(Cl)c4[nH]3)cc2Cl)cc1 [MIT 9952-208]
0.57	0.53	–	–	O=C(NNC(=O)c1cccc2ccccc12)c1ccc(NC(=O)c2cccc3ccccc23)cc1 [MIT 9952-329]
–	–	0.57	0.52	CCN(CC)S(=O)(=O)c1cc(C(=O)Nc2ccc(Br)cc2)ccc1Br [MIT 9952-192]
–	–	0.48	0.52	O=S(=O)([O-])C(F)(F)F.O=[N+]([O-])c1ccc([I+]c2ccc(F)cc2)cc1 [MIT 9952-241]
0.57	0.55	–	–	Nc1ccc(C(=O)Nc2ccc(-c3nc4ccc(NC(=O)c5ccc(N)cc5)c(Cl)c4[nH]3)cc2Cl)cc1 [MIT 9952-334]
–	–	1.21	1.22	O=C(O)CCNC(=O)c1ccccc1 [MIT 9952-94]
–	–	0.5	0.51	O=C(/C=C/c1ccccc1)NC(NC(=S)Nc1cccc([N+](=O)[O-])c1)C(Cl)(Cl)Cl (stereo not shown) [MIT 9952-7]
–	–	1.32	1.18	O=C(CC1=CCCCC1)Nc1cc([N+](=O)[O-])ccc1Cl [MIT 9952-46]

SMILES	ENDOHDL Test 1 [1]	ENDOHDL Test 2 [1]	ENDOHDL Test 1	ENDOHDL Test 2
O=[N+]([O-])c1ccc(Cl)c(/C=N/c2ccc(S(=O)(=O)c3ccc(/N=C/c4cc([N+](=O)[O-])ccc4Cl)cc3)cc2)c1 [MIT 9952-139]	–	–	1.22	1.39
NCC[Se][Se]CCN [MIT 9952-318]	0.67	0.81	–	–
Cc1c([N+](=O)[O-])cc(C(=O)Nc2cccc(NC(=O)c3ccccc3)c2)cc1[N+](=O)[O-] [MIT 9952-235]	–	–	0.62	0.33
C=CC[n+]1c(C)n(CC)c2cc(Cl)c(Cl)cc21.[I-] [MIT 9952-169]	–	–	0.54	0.6
CCCCCCC1CCC/C1=N\NC(N)=S (stereo not shown) [MIT 9952-185]	–	–	0.53	0.46
COc1ccc(NC(=O)Oc2cc(C(C)(C)C)cc(C(C)(C)C)c2)cc1Cl [MIT 9952-182]	–	–	0.71	0.41
Br.Oc1c(Br)cccc1CN(Cc1cc(Br)cc(Br)c1O)C1CCCCC1 [MIT 9952-316]	0.71	0.72	–	–
